Measured values published in ChEMBL document CHEMBL3085750, “Discovery of 2-methylpyridine-based biaryl amides as γ-secretase modulators for the treatment of Alzheimer's disease” (Bioorg Med Chem Lett, 2013).

What was measured:
Gamma-secretase = assay: Modulation of gamma-secretase in HEK293 cells expressing guinea pig Swedish mutant SFV-APP695sw assessed as inhibition of amyloid beta-42 production after 16 to 18 hrs by HTRF assay; format: cell-based, Homo sapiens
[1] = Ratio of drug level in brain to plasma in mouse at 10 mg/kg, po after 2 hrs; format: ADME, organism-based; design: dose 10 mg/kg, route oral; settings: read-out: BPR
Cytochrome P450 2D6 = Cytochrome P450 2D6 (Homo sapiens, UniProt P10635); assay: Inhibition of CYP2D6 (unknown origin) after 10 mins; format: ADME
Cytochrome P450 3A4 = Cytochrome P450 3A4 (Homo sapiens, UniProt P08684); assay: Inhibition of CYP3A4 (unknown origin) after 5 mins; format: ADME
[2] = Metabolic stability in human liver microsomes at 1 uM after 30 mins; format: ADME; settings: read-out: Stability
[3] = Metabolic stability in rat liver microsomes at 1 uM after 30 mins; format: ADME; settings: read-out: Stability

Sequence of Cytochrome P450 2D6 (P10635 whole entry): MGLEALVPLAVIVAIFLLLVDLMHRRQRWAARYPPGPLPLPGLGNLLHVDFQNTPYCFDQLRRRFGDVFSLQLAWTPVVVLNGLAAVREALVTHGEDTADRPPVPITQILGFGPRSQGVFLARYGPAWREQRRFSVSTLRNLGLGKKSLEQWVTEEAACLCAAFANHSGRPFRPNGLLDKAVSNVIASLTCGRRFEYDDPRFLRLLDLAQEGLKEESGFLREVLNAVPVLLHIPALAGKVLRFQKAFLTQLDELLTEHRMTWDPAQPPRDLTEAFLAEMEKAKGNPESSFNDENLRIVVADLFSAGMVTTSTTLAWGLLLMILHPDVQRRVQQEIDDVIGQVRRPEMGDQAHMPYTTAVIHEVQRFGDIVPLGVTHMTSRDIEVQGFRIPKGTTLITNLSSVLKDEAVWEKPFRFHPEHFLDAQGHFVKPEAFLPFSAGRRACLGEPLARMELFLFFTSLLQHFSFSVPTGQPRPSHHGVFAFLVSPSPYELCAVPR
Sequence of Cytochrome P450 3A4 (P08684 whole entry): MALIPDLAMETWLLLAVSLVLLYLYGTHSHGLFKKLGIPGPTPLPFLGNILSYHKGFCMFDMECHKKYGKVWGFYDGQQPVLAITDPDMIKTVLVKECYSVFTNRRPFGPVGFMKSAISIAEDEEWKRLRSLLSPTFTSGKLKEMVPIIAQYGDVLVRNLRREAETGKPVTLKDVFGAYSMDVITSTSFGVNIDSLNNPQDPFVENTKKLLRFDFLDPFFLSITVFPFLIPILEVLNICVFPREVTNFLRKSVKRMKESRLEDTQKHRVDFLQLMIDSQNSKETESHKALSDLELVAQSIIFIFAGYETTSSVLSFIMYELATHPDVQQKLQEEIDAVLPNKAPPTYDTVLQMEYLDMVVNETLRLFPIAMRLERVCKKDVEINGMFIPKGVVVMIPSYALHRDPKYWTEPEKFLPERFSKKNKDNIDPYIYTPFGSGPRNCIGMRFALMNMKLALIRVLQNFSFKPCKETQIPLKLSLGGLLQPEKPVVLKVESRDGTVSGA

Row | Structure (SMILES) | IC50 (Gamma-secretase) | other results
1 | Cc1cc(-c2ccc(NC(=O)C(C)c3ccccc3)cc2)ccn1 (stereo unspecified) | 6000 nM | –
2 | Cc1cc(-c2ccc(NC(=O)Nc3cc(C(F)(F)F)cc(C(F)(F)F)c3)cc2)ccn1 | 1110 nM | –
3 | Cc1cc(-c2ccc(/C=C3\CCCN([C@@H](C)c4ccc(F)cc4)C3=O)cc2)ccn1 | 1530 nM | –
4 | Cc1cc(-c2ccc(NC(=O)C(C)c3cccc(-c4ccncc4)c3)cc2)ccn1 (stereo unspecified) | 1200 nM | –
5 | Cc1cc(-c2ccc(NC(=O)C(C)c3cccc(-c4cccnc4)c3)cc2)ccn1 (stereo unspecified) | 1290 nM | –
6 | O=S(=O)(Nc1ccc(-c2nnco2)cc1)c1cc(Cl)cc(Cl)c1 | 2440 nM | Kp at 2 h [1]: 0.16; IC50 (Cytochrome P450 2D6): 15100 nM; IC50 (Cytochrome P450 3A4): 27000 nM; microsomal CLint at 1 µM [2]: 94 µL/min/mg; microsomal CLint at 1 µM [3]: 287 µL/min/mg
7 | CCCCC(C(=O)Nc1ccc(-c2ccnc(C)c2)cc1)c1cccc(C)c1 (stereo unspecified) | 490 nM | –
8 | Cc1cccc(C(CC(C)C)C(=O)Nc2ccc(-c3ccnc(C)c3)cc2)c1 (single isomer, unassigned; isomer 2) | 1380 nM | –
9 | CCCC(C(=O)Nc1ccc(-c2ccnc(C)c2)cc1)c1cccc(C)c1 (stereo unspecified) | 540 nM | –
10 | O=S(=O)(Nc1ccc(-c2ccco2)cc1)c1cc(Cl)cc(Cl)c1 | > 10000 nM | IC50 (Cytochrome P450 2D6): > 27000 nM; microsomal CLint at 1 µM [2]: > 399 µL/min/mg; microsomal CLint at 1 µM [3]: > 399 µL/min/mg
11 | O=S(=O)(Nc1ccc(-c2ccncc2)cc1)c1cc(Cl)cc(Cl)c1 | 2750 nM | Kp at 2 h [1]: 0.09; IC50 (Cytochrome P450 2D6): 200 nM; IC50 (Cytochrome P450 3A4): 600 nM; microsomal CLint at 1 µM [2]: 35 µL/min/mg; microsomal CLint at 1 µM [3]: 85 µL/min/mg
12 | Cc1cc(-c2ccc(NC(=O)C(C)c3cccc(N4CCN(C)CC4)c3)cc2)ccn1 (stereo unspecified) | > 10000 nM | –
13 | Cc1cc(-c2ccc(C(=O)NC(C)c3cc(C(F)(F)F)cc(C(F)(F)F)c3)cc2)ccn1 (stereo unspecified) | > 10000 nM | –
14 | Cc1cc(-c2ccc(NC(=O)[C@@H](C)c3cccc(-c4ccc(N5CCOCC5)cc4)c3)cc2)ccn1 | 70 nM | –
15 | O=S(=O)(Nc1ccc(-c2cc[nH]n2)cc1)c1cc(Cl)cc(Cl)c1 | > 10000 nM | IC50 (Cytochrome P450 2D6): 11800 nM; IC50 (Cytochrome P450 3A4): 15300 nM; microsomal CLint at 1 µM [2]: 384 µL/min/mg; microsomal CLint at 1 µM [3]: > 399 µL/min/mg
16 | Cc1cc(-c2ccc(NC(=O)C(O)c3cc(C(F)(F)F)cc(C(F)(F)F)c3)cc2)ccn1 (stereo unspecified) | 2130 nM | –
17 | CNc1ccc(-c2cccc(C(C)C(=O)Nc3ccc(-c4ccnc(C)c4)cc3)c2)cn1 (stereo unspecified) | 930 nM | –
18 | Cc1cc(-c2ccc(NC(=O)C(C)(C)c3cc(C(F)(F)F)cc(C(F)(F)F)c3)cc2)ccn1 | > 10000 nM | –

Row | Structure (SMILES) | IC50 (Gamma-secretase) | other results
19 | COc1ccc(-c2cccc(C(C)C(=O)Nc3ccc(-c4ccnc(C)c4)cc3)c2)cc1 (stereo unspecified) | 150 nM | –
20 | COc1cc(NS(=O)(=O)c2cc(C(F)(F)F)cc(C(F)(F)F)c2)ccc1-c1ccnc(C)c1 | 530 nM | –
21 | Cc1cc(-c2ccc(NS(=O)(=O)c3cc(C(F)(F)F)cc(C(F)(F)F)c3)cc2)ccn1 | 280 nM | IC50 (Cytochrome P450 2D6): 2000 nM; IC50 (Cytochrome P450 3A4): > 27000 nM; microsomal CLint at 1 µM [2]: 399 µL/min/mg; microsomal CLint at 1 µM [3]: 290 µL/min/mg
22 | Cc1cc(-c2ccc(NC(=O)C(C)c3cccc(-c4ccccc4)c3)cc2)ccn1 (stereo unspecified) | 660 nM | –
23 | Cc1cccc(CC(=O)Nc2ccc(-c3ccnc(C)c3)cc2)c1 | 2780 nM | –
24 | Cc1cc(-c2ccc(NC(=O)C(C)c3cccc(-c4ccccc4C#N)c3)cc2)ccn1 (stereo unspecified) | 570 nM | –
25 | Cc1cc(-c2ccc(C(=O)NCCc3ccc(Cl)cc3)cc2)ccn1 | 2120 nM | –
26 | Cc1cc(-c2ccc(NC(=O)C(C)c3cccc(-c4ccccn4)c3)cc2)ccn1 (stereo unspecified) | > 10000 nM | –
27 | COc1cc(C(=O)NCCC(c2ccccc2)c2ccccc2)ccc1-n1cnc(C)c1 | 320 nM | microsomal CLint at 1 µM [3]: > 399 µL/min/mg
28 | COc1cc(NC(=O)[C@H](C)c2cc(C(F)(F)F)cc(C(F)(F)F)c2)ccc1-c1ccnc(C)c1 | 500 nM | –
29 | CCC(C(=O)Nc1ccc(-c2ccnc(C)c2)cc1)c1cccc(C)c1 (stereo unspecified) | 1050 nM | –
30 | O=S(=O)(Nc1ccc(-c2cnco2)cc1)c1cc(Cl)cc(Cl)c1 | 1540 nM | Kp at 2 h [1]: 0.03; IC50 (Cytochrome P450 2D6): 2900 nM; IC50 (Cytochrome P450 3A4): 1600 nM; microsomal CLint at 1 µM [2]: 32 µL/min/mg; microsomal CLint at 1 µM [3]: 166 µL/min/mg
31 | Cc1cc(-c2ccc(NC(=O)C(C)c3cccc(N4CCOCC4)c3)cc2)ccn1 (stereo unspecified) | 4800 nM | –
32 | Cc1cc(-c2ccc(NC(=O)C(C)c3cc(C#N)cc(C(F)(F)F)c3)cc2)ccn1 (stereo unspecified) | 7000 nM | –
33 | Cc1cc(-c2ccc(NC(=O)C(C)c3cccc(-c4cnc(N5CCOCC5)nc4)c3)cc2)ccn1 (stereo unspecified) | 650 nM | –
34 | Cc1cc(-c2ccc(NC(=O)C(C)c3cccc(-c4ccc(N5CCOCC5)nc4)c3)cc2)ccn1 (stereo unspecified) | 150 nM | –
35 | COc1cc(-c2ccnc(C)c2)ccc1NS(=O)(=O)c1cc(C(F)(F)F)cc(C(F)(F)F)c1 | 1830 nM | IC50 (Cytochrome P450 2D6): 1900 nM; IC50 (Cytochrome P450 3A4): 2200 nM; microsomal CLint at 1 µM [2]: 306 µL/min/mg; microsomal CLint at 1 µM [3]: > 399 µL/min/mg
